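1) Cells in 96-well plates. 2) Compound, 48 h, 5 concentrations. 3) Linear interpolation between surrounding doses. 4) Unreached endpoint = highest concentration. GI50 is the concentration that inhibits growth by half.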 The source made the active and inactive calls. Rule as the data show it: active = GI50 up to about 1.1 µM and inactive = higher.
What was measured:
Assay in all cases: NCI tumour cell line growth inhibition, 48 h
786-0 = test system: 786-0
A498 = test system: A498
A549 = test system: A549
ACHN = test system: ACHN
BT-549 = test system: BT-549
CAKI-1 = test system: CAKI-1
CCRF-CEM = test system: CCRF-CEM
COLO 205 = test system: COLO 205
DU-145 = test system: DU-145
EKVX = test system: EKVX
HCT-116 = test system: HCT-116
HCT-15 = test system: HCT-15
HL-60 = test system: HL-60
HOP-62 = test system: HOP-62
HT-29 = test system: HT-29
Hs-578T = test system: Hs-578T
IGROV-1 = test system: IGROV-1
K562 = test system: K562
KM12 = test system: KM12
LOX IMVI = test system: LOX IMVI
M14 = test system: M14
MCF7 = test system: MCF7
MDA-MB-231 = test system: MDA-MB-231
MDA-MB-435 = test system: MDA-MB-435
MDA-N = test system: MDA-N
MOLT-4 = test system: MOLT-4
NCI-H23 = test system: NCI-H23
NCI-H460 = test system: NCI-H460
NCI-H522 = test system: NCI-H522
NCI/ADR-RES = test system: NCI/ADR-RES
OVCAR-3 = test system: OVCAR-3
OVCAR-4 = test system: OVCAR-4
OVCAR-5 = test system: OVCAR-5
OVCAR-8 = test system: OVCAR-8
PC-3 = test system: PC-3
RPMI-8226 = test system: RPMI-8226
SF-268 = test system: SF-268
SF-295 = test system: SF-295
SF-539 = test system: SF-539
SK-MEL-2 = test system: SK-MEL-2
SK-MEL-5 = test system: SK-MEL-5
SK-OV-3 = test system: SK-OV-3
SN12C = test system: SN12C
SNB-19 = test system: SNB-19
SNB-75 = test system: SNB-75
SR = test system: SR
SW-620 = test system: SW-620
T47D = test system: T47D
TK-10 = test system: TK-10
U-251 = test system: U-251
UACC-257 = test system: UACC-257
UACC-62 = test system: UACC-62
UO-31 = test system: UO-31
HOP-92 = test system: HOP-92
Malme-3M = test system: Malme-3M
NCI-H226 = test system: NCI-H226
RXF 393 = test system: RXF 393

COc1cc(C2C(Cl)C(=O)N2c2ccc(Br)cc2)cc(I)c1O (centres undefined)
GI50 (786-0): > 100 µM (inactive) | GI50 (A498): > 100 µM (inactive) | GI50 (A549): 42.4 µM (inactive) | GI50 (ACHN): 33.5 µM (inactive) | GI50 (BT-549): 45.1 µM (inactive) | GI50 (CAKI-1): 47.9 µM (inactive) | GI50 (CCRF-CEM): 26.4 µM (inactive) | GI50 (COLO 205): > 100 µM (inactive) | GI50 (DU-145): > 100 µM (inactive) | GI50 (EKVX): 20.7 µM (inactive) | GI50 (HCT-116): 40.3 µM (inactive) | GI50 (HCT-15): 23.8 µM | GI50 (HL-60): 34 µM (inactive) | GI50 (HOP-62): 37.4 µM (inactive) | GI50 (HT-29): 87.1 µM (inactive) | GI50 (Hs-578T): 59.6 µM (inactive) | GI50 (IGROV-1): 1.54 µM (inactive) | GI50 (K562): 7.21 µM (inactive) | GI50 (KM12): 37.3 µM (inactive) | GI50 (LOX IMVI): 6.04 µM (inactive) | GI50 (M14): 33 µM (inactive) | GI50 (MCF7): 87.9 µM (inactive) | GI50 (MDA-MB-231): 18.9 µM (inactive) | GI50 (MDA-MB-435): 47.5 µM (inactive) | GI50 (MDA-N): 36.6 µM (inactive) | GI50 (MOLT-4): 27.5 µM (inactive) | GI50 (NCI-H23): 52.8 µM (inactive) | GI50 (NCI-H460): 58.3 µM (inactive) | GI50 (NCI-H522): 18.7 µM (inactive) | GI50 (NCI/ADR-RES): 33.5 µM (inactive) | GI50 (OVCAR-3): 45.3 µM (inactive) | GI50 (OVCAR-4): 70.5 µM (inactive) | GI50 (OVCAR-5): 87.7 µM (inactive) | GI50 (OVCAR-8): > 100 µM (inactive) | GI50 (PC-3): > 100 µM (inactive) | GI50 (RPMI-8226): 33.1 µM (inactive) | GI50 (SF-268): 89.1 µM (inactive) | GI50 (SF-295): 35.4 µM (inactive) | GI50 (SF-539): > 100 µM (inactive) | GI50 (SK-MEL-2): 65.8 µM (inactive) | GI50 (SK-MEL-5): 43.2 µM (inactive) | GI50 (SK-OV-3): 92.9 µM (inactive) | GI50 (SN12C): 68.5 µM (inactive) | GI50 (SNB-19): 73.5 µM (inactive) | GI50 (SNB-75): 37.8 µM (inactive) | GI50 (SR): 29.2 µM (inactive) | GI50 (SW-620): > 100 µM (inactive) | GI50 (T47D): 23.8 µM (inactive) | GI50 (TK-10): 90.8 µM (inactive) | GI50 (U-251): > 100 µM (inactive) | GI50 (UACC-257): 57 µM (inactive) | GI50 (UACC-62): 25.5 µM (inactive) | GI50 (UO-31): 31.1 µM (inactive)

CC(=O)Nc1ccc2c(C(=O)O)c(C)c(O)nc2n1
GI50 (786-0): > 100 µM (inactive) | GI50 (A549): > 100 µM (inactive) | GI50 (ACHN): > 100 µM (inactive) | GI50 (BT-549): > 100 µM (inactive) | GI50 (CAKI-1): > 100 µM (inactive) | GI50 (CCRF-CEM): > 10 µM (inactive) | GI50 (COLO 205): > 100 µM (inactive) | GI50 (DU-145): > 100 µM (inactive) | GI50 (EKVX): > 100 µM (inactive) | GI50 (HCT-116): 71.3 µM (inactive) | GI50 (HCT-15): > 100 µM | GI50 (HL-60): > 100 µM (inactive) | GI50 (HOP-92): 5.27 µM (inactive) | GI50 (HT-29): > 100 µM (inactive) | GI50 (Hs-578T): > 100 µM (inactive) | GI50 (IGROV-1): > 100 µM (inactive) | GI50 (K562): 59.8 µM (inactive) | GI50 (KM12): > 100 µM (inactive) | GI50 (M14): > 100 µM (inactive) | GI50 (MCF7): > 100 µM (inactive) | GI50 (MDA-MB-231): > 100 µM (inactive) | GI50 (MDA-MB-435): > 100 µM (inactive) | GI50 (MDA-N): > 100 µM (inactive) | GI50 (MOLT-4): 51.3 µM (inactive) | GI50 (Malme-3M): 95.7 µM (inactive) | GI50 (NCI-H226): 33.7 µM (inactive) | GI50 (NCI-H23): > 100 µM (inactive) | GI50 (NCI-H460): > 100 µM (inactive) | GI50 (NCI-H522): 32.5 µM (inactive) | GI50 (NCI/ADR-RES): > 100 µM (inactive) | GI50 (OVCAR-5): > 100 µM (inactive) | GI50 (OVCAR-8): 83.4 µM (inactive) | GI50 (PC-3): > 100 µM (inactive) | GI50 (RPMI-8226): > 100 µM (inactive) | GI50 (RXF 393): > 100 µM (inactive) | GI50 (SF-268): 57.7 µM (inactive) | GI50 (SF-295): > 100 µM (inactive) | GI50 (SF-539): > 100 µM (inactive) | GI50 (SK-MEL-2): > 100 µM (inactive) | GI50 (SK-MEL-5): > 100 µM (inactive) | GI50 (SK-OV-3): > 100 µM (inactive) | GI50 (SN12C): > 100 µM (inactive) | GI50 (SNB-19): 25.5 µM (inactive) | GI50 (SR): > 10 µM (inactive) | GI50 (SW-620): > 100 µM (inactive) | GI50 (T47D): 89.7 µM (inactive) | GI50 (TK-10): > 100 µM (inactive) | GI50 (U-251): 46.9 µM (inactive) | GI50 (UACC-257): > 100 µM (inactive) | GI50 (UACC-62): > 100 µM (inactive) | GI50 (UO-31): > 100 µM (inactive)
